Experimental data as given in patent US5130414A, “Isolation and structural elucidation of the cyclic peptide hymenistatin 1” (Arizona Board of Regents, a body corporate of Arizona State …, priority 1989, dated 1992).

Test system: murine P388 lymphocytic leukemia (PS system)
Test: PS system cell growth inhibition (P388 murine leukemia cell line, N.C.I. Protocol)
Format: cell-based

cyclo [Hymenistatin 1, cyclo [Pro^a -Pro^b -Tyr-Val-Pro^c -Leu-Ili-Ile]]
PS ED50: 3.5 µg/mL
